This data set is described as follows: Dissolution of trans-PMD glucovanillin conjugate in water. In kind it is physicochemical. The settings on record: solid 50 mg in water 0.1 ml. An excerpt: The resultant solution was cooled to room temperature and purified by chromatography over silica by gradient elution using 1:1 EtOAc/hexane to remove residual diol followed by 1:10 MeOH/dichloromethane to afford the title compound as an odourless white solid (0.73 g, 74%).

With `COc1cc(C2O[C@H]3C[C@@H](C)CCC3C(C)(C)O2)ccc1O[C@@H]1O[C@H](CO)[C@@H](O)[C@H](O)[C@H]1O` (mixture of isomers) [Example 2, Racemic trans-PMD Glucovanillin Conjugate], the dissolution in water entry is “readily dissolve”.
